Key:
D(3) dopamine receptor [1] = target: T1, D(3) dopamine receptor (Homo sapiens, UniProt P35462)
D(3) dopamine receptor [2] = target: T1, D(3) dopamine receptor; experiment: Compound was measured for its ability to compete with [3H]spiperone binding to the human Dopamine receptor D3 transfected in CHO cells; assay type: cell-based
D(3) dopamine receptor [3] = target: T1, D(3) dopamine receptor; remark: listed apart in the source
D(3) dopamine receptor [4] = target: T1, D(3) dopamine receptor; experiment: biochemical

T1 sequence (P35462 whole entry): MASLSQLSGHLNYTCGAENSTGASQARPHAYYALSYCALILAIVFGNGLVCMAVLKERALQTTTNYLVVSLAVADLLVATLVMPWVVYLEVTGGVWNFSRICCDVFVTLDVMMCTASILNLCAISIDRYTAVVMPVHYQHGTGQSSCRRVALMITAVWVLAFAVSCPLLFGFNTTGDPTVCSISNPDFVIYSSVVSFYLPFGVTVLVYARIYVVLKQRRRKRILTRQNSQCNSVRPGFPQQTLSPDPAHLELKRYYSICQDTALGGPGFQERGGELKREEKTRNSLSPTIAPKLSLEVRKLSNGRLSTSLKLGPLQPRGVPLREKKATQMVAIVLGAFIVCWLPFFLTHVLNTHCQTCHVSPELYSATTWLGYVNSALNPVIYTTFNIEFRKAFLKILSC

Row | SMILES | Ki (D(3) dopamine receptor [1]) [nM] | further results
1 | CC(=O)NCC1(c2ccccc2)CCN(CCCC(=O)c2ccc(F)cc2)CC1 [ACEPERONE] | 10000 | –
2 | CCCCN1C/C(=C\c2ccc(Br)cc2)C(=O)/C(=C/c2ccc(Br)cc2)C1 | 1000 | –
3 | O=C(CCCN1CCN2c3ccccc3CCC2C1)c1ccc(F)cc1 (centres undefined) | 83.5 | –
4 | c1ccc2c3c([nH]c2c1)CCN1CCN(CCc2ccncc2)CC31 (centres undefined) | 10000 | –
5 | CCN1CCC[C@H]1CNC(=O)c1c(O)c(Cl)cc(Cl)c1OC [RACLOPRIDE] | – | Ki (D(3) dopamine receptor [2]): 3.7 nM
6 | O=C(OC1(c2nccc3ccccc23)CCN(CCc2ccccc2)CC1)c1ccccc1 | 1000 | –
7 | OC(CCCN1CCN2CCc3[nH]c4ccccc4c3C2C1)c1ccc(F)cc1 (centres undefined) | 2410 | –
8 | CCCCCCCN1CCC(C(=O)CC)(c2cccc(O)c2)CC1 | 2610 | –
9 | CCCCN1CCCC1CNC(=O)c1cc(C#N)c2ccccc2c1OC (centres undefined) [NAFADOTRIDE] | – | Ki (D(3) dopamine receptor [3]): 0.81 nM
10 | CCCCN(CC)CC(C(C)=O)C1=C(O)OC2C=CC=CC2C1=O (centres undefined) | 10000 | –
11 | CCCN(CCC)CN1C(=O)c2ccccc2C1=O | 10000 | –
12 | CCCCN(CCCC)Cc1c(C)nc2cc(OC)ccc2c1O | 10000 | –
13 | CCCN(CCC)C1CCc2cc3c(cc2C1)OCC3 (centres undefined) | – | Ki (D(3) dopamine receptor [4]): 13 nM
14 | CCCN[C@@H]1CCc2c(OC)cccc2[C@@H]1C | – | Ki (D(3) dopamine receptor [4]): 70 nM
15 | O=C(CCCN1CCN2Cc3[nH]c4ccccc4c3CC2C1)c1ccc(F)cc1 (centres undefined) [BIRIPERONE] | 11 | –
16 | CCCCN1CSC(=S)N(Cc2ccccc2)C1 | 10000 | –
17 | CN(C)C(=O)C1(c2ccc(Cl)cc2)CCN(CCCC(=O)c2ccc(F)cc2)CC1 [AMIPERONE] | 43.2 | –

Row | SMILES | Ki (D(3) dopamine receptor [1]) [nM] | further results
18 | Cc1ccc(C)c2c1Sc1c(ccc3ccccc13)N2CCCN(C)C | 442 | –
19 | O=C(CCN1CCN2c3ccccc3CCC2C1)c1ccc(F)cc1 (centres undefined) | 465 | –
20 | Cc1ccc2c(c1)Sc1c(ccc3ccccc13)N2CCCN(C)C | 1420 | –
21 | OC1(c2ccc(Cl)cc2)CCN(Cc2c[nH]c3ccccc23)CC1 | – | Ki (D(3) dopamine receptor [4]): 60 nM
22 | CCCN(CCC)CCC(O)c1cc2c(c3ccccc13)CCCC2 (centres undefined) | 1260 | –
23 | CCCN1CCOC2c3cc(O)ccc3OC[C@H]21 (some centres undefined) | – | Ki (D(3) dopamine receptor [2]): 1.1 nM
24 | CCN(CC)CCNC(=O)c1cc(Cl)c(N)cc1OC [METOCLOPRAMIDE] | – | Ki (D(3) dopamine receptor [4]): 27 nM
25 | CCC(=O)OC1(c2ccccc2)CCN(CCC(=O)c2ccccc2)CC1C (centres undefined) | 10000 | –
26 | N#CCCN(CCCN1CCOCC1)CN1C(=O)c2ccccc2C1=O | 10000 | –
27 | O=c1[nH]c2ccccc2n1CCCN1CCN(C(c2ccccc2)c2ccccc2)CC1 [OXATOMIDE] | 62.7 | –
28 | CCn1c2ccccc2c2cc(NCCCN(C)C)ccc21 | 10000 | –
29 | CCOc1ccc(NC(=O)C2CCCN(CCc3ccccc3)C2)cc1 (centres undefined) | 10000 | –
30 | CCCCN1CN(CCCC)CN(C(=S)c2c(Cl)cccc2Cl)C1 | 10000 | –
31 | CCC(=O)OC1(c2ccccc2)CCN(CCCC(=O)c2ccccc2)CC1 | 429 | –
32 | CCN(CC)CCCN(C)Cc1c(-c2ccccc2)oc(-c2ccccc2)c1Cl | 1380 | –
33 | CCCCCN1CCN(C(CC(=O)c2ccccc2)C(=O)c2ccccc2)CC1 (centres undefined) | 10000 | –
34 | O=C(CCCCN1CCN2c3ccccc3CCC2C1)c1ccccc1 (centres undefined) | 297 | –

Reference: ChEMBL document CHEMBL1145120, “Molecular modeling of the three-dimensional structure of dopamine 3 (D3) subtype receptor: discovery of novel and potent D3 ligands through a hybrid pharmacophore- and structure-based database searching approach” (J Med Chem, 2003)
